Laboratory results taken from US20240270762A1, “PENICILLIN-BINDING PROTEIN INHIBITORS” (priority 2021, published 2024).
pIC50: −log10 of the molar value. ≈ marks a conversion by molar mass, not a printed value.

Columns and labels:
N. gonorrhoeae WHO X = experiment: Liquid broth MIC in Fastidious broth; conditions: Neisseria gonorrhoeae, read-out: Minimum Inhibitory Concentration (MIC), N. gonorrhoeae WHO X
K. pneumoniae SI-117 = experiment: microbe, parasite or virus in culture; format: cell-based; conditions: Klebsiella pneumoniae, SI117, read-out: MIC K. pneumoniae SI-117
[1] = target: T1, PBP3 from Pseudomonas aeruginosa (PAO1) (Pseudomonas aeruginosa, UniProt G3XD46); experiment: Bocillin-FL fluorescence polarization competition binding, P. aeruginosa PBP3; conditions: Binding affinity to P. aeruginosa PBP3; fluorescence polarization competition binding assay using Bocillin-FL; read-out: P. aeruginosa PBP3 Potency
T1 construct: made in house
T1 sequence (G3XD46 whole entry): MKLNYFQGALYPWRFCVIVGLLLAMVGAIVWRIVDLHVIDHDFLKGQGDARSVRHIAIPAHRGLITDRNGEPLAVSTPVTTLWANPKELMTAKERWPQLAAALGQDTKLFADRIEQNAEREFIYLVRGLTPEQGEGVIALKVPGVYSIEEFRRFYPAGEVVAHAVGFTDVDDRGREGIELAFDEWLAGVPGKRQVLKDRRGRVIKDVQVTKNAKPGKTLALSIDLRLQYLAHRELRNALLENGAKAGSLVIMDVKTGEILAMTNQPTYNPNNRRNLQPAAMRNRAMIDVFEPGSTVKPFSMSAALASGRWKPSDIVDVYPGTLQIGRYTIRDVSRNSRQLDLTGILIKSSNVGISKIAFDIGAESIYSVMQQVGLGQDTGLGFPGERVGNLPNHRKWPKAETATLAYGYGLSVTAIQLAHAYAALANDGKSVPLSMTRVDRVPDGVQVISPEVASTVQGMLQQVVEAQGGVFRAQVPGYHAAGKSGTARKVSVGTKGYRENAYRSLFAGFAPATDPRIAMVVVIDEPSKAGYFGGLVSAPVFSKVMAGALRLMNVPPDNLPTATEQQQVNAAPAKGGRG
Procedure, shortened: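 Purified PBP was preincubated with inhibitor (E. coli PBP3 1.5 μM, 30 min; P. aeruginosa PBP3 0.75 μM, A. baumannii PBP3 0.2 μM and PBP1a 1 μM, 15 min), then Bocillin-FL (0.1 μM; 0.05 μM for PBP1a) added and FP read up to 60 min. EC50 = 50% loss of bound probe.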

N. gonorrhoeae WHO M = experiment: Liquid broth MIC in Fastidious broth; conditions: Neisseria gonorrhoeae, read-out: Minimum Inhibitory Concentration (MIC), N. gonorrhoeae WHO M
E. coli AG100 = experiment: microbe, parasite or virus in culture; format: cell-based; conditions: Escherichia coli, AG100, read-out: MIC E. coli AG100
[2] = tested on: P. aeruginosa (ΔmexAB-oprM); experiment: Broth microdilution MIC in CAMHB; format: cell-based; conditions: Pseudomonas aeruginosa; read-out: MIC P. aeruginosa ΔmexAB-oprM
E. coli AG100A = experiment: Broth microdilution MIC in CAMHB; format: cell-based; conditions: Escherichia coli, read-out: MIC E. coli AG100A
N. gonorrhoeae WHO L = experiment: Liquid broth MIC in Fastidious broth; conditions: Neisseria gonorrhoeae, read-out: Minimum Inhibitory Concentration (MIC), N. gonorrhoeae WHO L
P. aeruginosa ATCC 35151 = experiment: microbe, parasite or virus in culture; format: cell-based; conditions: Pseudomonas aeruginosa, ATCC35151, read-out: MIC P. aeruginosa ATCC 35151
E. coli 901C = experiment: microbe, parasite or virus in culture; format: cell-based; conditions: Escherichia coli, read-out: MIC E. coli 901C
N. gonorrhoeae WHO Z = experiment: Liquid broth MIC in Fastidious broth; conditions: Neisseria gonorrhoeae, read-out: Minimum Inhibitory Concentration (MIC), N. gonorrhoeae WHO Z
N. gonorrhoeae FA1090 = experiment: Liquid broth MIC in Fastidious broth; conditions: Neisseria gonorrhoeae, FA1090, read-out: Minimum Inhibitory Concentration (MIC), N. gonorrhoeae FA 1090
N. gonorrhoeae WHO Q = experiment: Liquid broth MIC in Fastidious broth; conditions: Neisseria gonorrhoeae, read-out: Minimum Inhibitory Concentration (MIC), N. gonorrhoeae WHO Q
K. pneumoniae 848844 = experiment: microbe, parasite or virus in culture; format: cell-based; conditions: Klebsiella pneumoniae, 848844, read-out: MIC K. pneumoniae 848844
A. baumannii ATCC 19606 = experiment: microbe, parasite or virus in culture; format: cell-based; conditions: Acinetobacter baumannii, ATCC19606, read-out: MIC, A. baumannii ATCC 19606
[3] = tested on: N. gonorrhoeae ATCC 49226; experiment: Liquid broth MIC in Fastidious broth; conditions: Neisseria gonorrhoeae, ATCC49226, read-out: Minimum Inhibitory Concentration (MIC), N. gonorrhoeae ATCC 49226

CS(=O)(=O)N1CCN(C(=O)N[C@@H](C(=O)N[C@H]2Cc3ccc(F)c(C(=O)O)c3OB2O)c2ccc(P(=O)(O)O)c(F)c2)C1=O (single isomer, unassigned) [Example 19]
MIC (N. gonorrhoeae WHO X): < 1 µg/mL | MIC (K. pneumoniae SI-117): > 128 µg/mL | pIC50 [1]: > 5.00 | MIC (N. gonorrhoeae WHO M): < 1 µg/mL | MIC (E. coli AG100): > 128 µg/mL | MIC [2]: 32 to 64 µg/mL (≈ 49.5 to 99 µM) | MIC (E. coli AG100A): 32 to 64 µg/mL (≈ 49.5 to 99 µM) | MIC (N. gonorrhoeae WHO L): < 1 µg/mL | MIC (P. aeruginosa ATCC 35151): 2 to 4 µg/mL (≈ 3.09 to 6.19 µM) | MIC (E. coli 901C): < 1 µg/mL | MIC (N. gonorrhoeae WHO Z): < 1 µg/mL | MIC (N. gonorrhoeae FA1090): < 1 µg/mL | MIC (N. gonorrhoeae WHO Q): < 1 µg/mL | MIC (K. pneumoniae 848844): > 128 µg/mL | MIC (A. baumannii ATCC 19606): > 128 µg/mL | MIC [3]: < 1 µg/mL

CCN1CCN(C(=O)N[C@@H](C(=O)N[C@H]2Cc3cccc(C(=O)O)c3OB2O)c2ccc(P(C)(=O)O)cc2)C(=O)C1=O (single isomer, unassigned) [Example 47]
MIC (N. gonorrhoeae WHO X): 4 to 8 µg/mL (≈ 6.82 to 13.6 µM) | MIC (K. pneumoniae SI-117): > 128 µg/mL | pIC50 [1]: > 5.00 | MIC (N. gonorrhoeae WHO M): < 1 µg/mL | MIC (E. coli AG100): 8 to 16 µg/mL (≈ 13.6 to 27.3 µM) | MIC [2]: 8 to 16 µg/mL (≈ 13.6 to 27.3 µM) | MIC (E. coli AG100A): 8 to 16 µg/mL (≈ 13.6 to 27.3 µM) | MIC (N. gonorrhoeae WHO L): 4 to 8 µg/mL (≈ 6.82 to 13.6 µM) | MIC (P. aeruginosa ATCC 35151): < 1 µg/mL | MIC (E. coli 901C): < 1 µg/mL | MIC (N. gonorrhoeae WHO Z): 1 to 2 µg/mL (≈ 1.71 to 3.41 µM) | MIC (N. gonorrhoeae FA1090): < 1 µg/mL | MIC (N. gonorrhoeae WHO Q): 1 to 2 µg/mL (≈ 1.71 to 3.41 µM) | MIC (K. pneumoniae 848844): > 128 µg/mL | MIC (A. baumannii ATCC 19606): 32 to 64 µg/mL (≈ 54.6 to 109 µM) | MIC [3]: < 1 µg/mL

N[C@@H](C(=O)N[C@H]1Cc2cccc(C(=O)O)c2OB1O)c1ccc(P(=O)(O)O)cc1 (single isomer, unassigned) [Example 171]
MIC (N. gonorrhoeae WHO X): > 64 µg/mL | MIC (K. pneumoniae SI-117): > 128 µg/mL | pIC50 [1]: < 3.60 | MIC (N. gonorrhoeae WHO M): > 64 µg/mL | MIC (E. coli AG100): > 128 µg/mL | MIC [2]: > 128 µg/mL | MIC (E. coli AG100A): > 128 µg/mL | MIC (N. gonorrhoeae WHO L): > 64 µg/mL | MIC (P. aeruginosa ATCC 35151): > 128 µg/mL | MIC (E. coli 901C): > 128 µg/mL | MIC (N. gonorrhoeae WHO Z): > 64 µg/mL | MIC (N. gonorrhoeae FA1090): > 64 µg/mL | MIC (N. gonorrhoeae WHO Q): > 64 µg/mL | MIC (K. pneumoniae 848844): > 128 µg/mL | MIC (A. baumannii ATCC 19606): > 128 µg/mL | MIC [3]: > 64 µg/mL

O=C(O)c1cccc2c1OB(O)[C@@H](NC(=O)[C@@H](NC(=O)c1ccn[nH]c1=O)c1ccc(P(=O)(O)O)cc1)C2 (single isomer, unassigned) [Example 177]
MIC (N. gonorrhoeae WHO X): 16 to 32 µg/mL (≈ 29.5 to 59 µM) | MIC (K. pneumoniae SI-117): > 128 µg/mL | pIC50 [1]: > 5.00 | MIC (N. gonorrhoeae WHO M): < 1 µg/mL | MIC (E. coli AG100): > 128 µg/mL | MIC [2]: > 128 µg/mL | MIC (E. coli AG100A): > 128 µg/mL | MIC (N. gonorrhoeae WHO L): 4 to 8 µg/mL (≈ 7.38 to 14.8 µM) | MIC (P. aeruginosa ATCC 35151): 2 to 4 µg/mL (≈ 3.69 to 7.38 µM) | MIC (E. coli 901C): 2 to 4 µg/mL (≈ 3.69 to 7.38 µM) | MIC (N. gonorrhoeae WHO Z): 4 to 8 µg/mL (≈ 7.38 to 14.8 µM) | MIC (N. gonorrhoeae FA1090): < 1 µg/mL | MIC (N. gonorrhoeae WHO Q): 4 to 8 µg/mL (≈ 7.38 to 14.8 µM) | MIC (K. pneumoniae 848844): > 128 µg/mL | MIC (A. baumannii ATCC 19606): > 128 µg/mL | MIC [3]: 1 to 2 µg/mL (≈ 1.84 to 3.69 µM)

O=C(O)c1cccc2c1OB(O)[C@@H](NC(=O)[C@H](NC(=O)c1ccn[nH]c1=O)c1ccc(P(=O)(O)O)cc1)C2 (single isomer, unassigned) [Example 178]
MIC (N. gonorrhoeae WHO X): 4 to 8 µg/mL (≈ 7.38 to 14.8 µM) | MIC (K. pneumoniae SI-117): > 128 µg/mL | pIC50 [1]: > 5.00 | MIC (N. gonorrhoeae WHO M): < 1 µg/mL | MIC (E. coli AG100): > 128 µg/mL | MIC [2]: 8 to 16 µg/mL (≈ 14.8 to 29.5 µM) | MIC (E. coli AG100A): 32 to 64 µg/mL (≈ 59 to 118 µM) | MIC (N. gonorrhoeae WHO L): 1 to 2 µg/mL (≈ 1.84 to 3.69 µM) | MIC (P. aeruginosa ATCC 35151): < 1 µg/mL | MIC (E. coli 901C): < 1 µg/mL | MIC (N. gonorrhoeae WHO Z): < 1 µg/mL | MIC (N. gonorrhoeae FA1090): < 1 µg/mL | MIC (N. gonorrhoeae WHO Q): 1 to 2 µg/mL (≈ 1.84 to 3.69 µM) | MIC (K. pneumoniae 848844): > 128 µg/mL | MIC (A. baumannii ATCC 19606): 32 to 64 µg/mL (≈ 59 to 118 µM) | MIC [3]: < 1 µg/mL

Cn1cccc(C(=O)N[C@H](C(=O)N[C@H]2Cc3cccc(C(=O)O)c3OB2O)c2ccc(P(=O)(O)O)cc2)c1=O (single isomer, unassigned) [Example 181]
MIC (N. gonorrhoeae WHO X): 16 to 32 µg/mL (≈ 28.8 to 57.6 µM) | MIC (K. pneumoniae SI-117): > 128 µg/mL | pIC50 [1]: 3.60 to 4.30 | MIC (N. gonorrhoeae WHO M): 16 to 32 µg/mL (≈ 28.8 to 57.6 µM) | MIC (E. coli AG100): > 128 µg/mL | MIC [2]: > 128 µg/mL | MIC (E. coli AG100A): > 128 µg/mL | MIC (N. gonorrhoeae WHO L): 16 to 32 µg/mL (≈ 28.8 to 57.6 µM) | MIC (P. aeruginosa ATCC 35151): 8 to 16 µg/mL (≈ 14.4 to 28.8 µM) | MIC (E. coli 901C): 32 to 64 µg/mL (≈ 57.6 to 115 µM) | MIC (N. gonorrhoeae WHO Z): 16 to 32 µg/mL (≈ 28.8 to 57.6 µM) | MIC (N. gonorrhoeae FA1090): 1 to 2 µg/mL (≈ 1.8 to 3.6 µM) | MIC (N. gonorrhoeae WHO Q): 16 to 32 µg/mL (≈ 28.8 to 57.6 µM) | MIC (K. pneumoniae 848844): > 128 µg/mL | MIC (A. baumannii ATCC 19606): > 128 µg/mL | MIC [3]: 16 to 32 µg/mL (≈ 28.8 to 57.6 µM)
